Results from US20250136617A1 (The Regents of the University of Colorado, A Body Corporate, priority 2022, published 2025).
Entries after “also recorded” stand apart in the source; their conditions may differ. Where two headings read alike, the source gives them in different places.

Target: CXCR4 (Homo sapiens, UniProt P61073)
Assay: Adenylate cyclase (cAMP inhibition) assay, thiadiazine scaffold, CHO-CXCR4-cAMP cells
Type: cell-based
Set-up: host or cells: CHO-K1
Protocol: Tango™ CXCR4-bla U2OS Cells (Invitrogen; K1779) were used for (β-arrestin recruitment assays and maintained as a monolayer culture in McCoy's 5a (Corning; 10-050-CV) supplemented with 10% dialyzed Fetal Bovine Serum (Gibco; 26400-044), 0.1 mM MEM Non-essential amino acids solution, 25 mM HEPES solution (Corning; 25-060-CI), 1 mM Sodium Pyruvate (Gibco; 11360-070), 200 μg/mL Zeocin selection reagent (Gibco; R25001), 50 μg/mL Hygromycin B (Gibco, 10687010), and 100 μg/mL Geneticin (G418 Sulfate) (Gibco, 10131035). U2OS cells were subcultured twice weekly by 0.05% Trypsin-EDTA treatment (Corning; 25-051-CI) and passaged to continue exponential growth phase for cell signaling assays. All cell cultures were maintained in cell culture incubators at 37° C. with 5% CO2. CHO-K1 CXCR4 cells (DiscoverX, Fremont, CA, USA) were used for cAMP inhibition assays and maintained as a monolayer culture in DMEM/F12 (Corning; 10-091-CV) supplemented with 10% Fetal Bovine Serum (Corning; 35-011-CV) and 100IU penicillin, […] streptomycin sulfate (Corning; 30-002-CI) and […] G418 (Gibco; 101310350. Cells were subculture 2 times weekly by o.o5% Trypsin-EDTA treatment (Corning; 25-051-CI) and passaged to continue exponential growth phase for cell signaling assays. All cell cultures were maintained in cell culture incubators at 37° C. with 5% CO2.CEM-CCRF cells (ATCC CCL-119) were used in both the migration and calcium flux assays and were cultured in growth media consisting of RPMI 1640 (Corning; 10-040-CV) supplemented with 10% Fetal Bovine Serum (Corning; 35-011-CV), and 100 IU penicillin, […] streptomycin sulfate (Corning; 30-002-CI). […] Cells were harvested for use in migration and calcium flux assays at 2.0×10^6 cells/mL to 2.5×10^6 cells/mL and resuspended in assay media to desired density for respective experiments.
Compounds and DMSO normalization to 0.5% were dispensed using the TECAN D300e digital dispenser into the wells of a 384-well white wall clear-bottom assay plate (Griener 781983). […] This cell suspension was dispensed at 20 μL per well into the assay plate and allowed to incubate overnight for approximately 18 hrs with compounds in cell culture incubator at 37° C. with 5% CO2. Following incubation, DMEM/F12 media was gently removed, then the Lance Ultra cAMP Kit (Perkin Elmer; TRF0263) was performed according to the supplier guidelines. […] Time-resolved fluorescence was measured on the BMG LABTECH CLARIOstar Plus (BMG LABTECH Inc., Cary, NC) using the Lance Ultra cAMP kit guidelines for excitation and emission. […]

CXCR4, sequence (P61073 whole entry): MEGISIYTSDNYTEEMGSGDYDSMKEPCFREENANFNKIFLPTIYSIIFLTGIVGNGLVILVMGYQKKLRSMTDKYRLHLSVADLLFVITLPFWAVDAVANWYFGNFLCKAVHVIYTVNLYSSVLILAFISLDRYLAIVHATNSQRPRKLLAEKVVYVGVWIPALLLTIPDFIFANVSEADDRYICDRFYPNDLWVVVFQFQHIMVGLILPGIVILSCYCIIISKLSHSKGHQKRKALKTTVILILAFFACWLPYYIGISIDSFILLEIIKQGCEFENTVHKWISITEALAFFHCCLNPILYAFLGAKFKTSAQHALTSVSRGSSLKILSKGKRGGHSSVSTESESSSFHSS

In the case of `CCOc1ccccc1-c1nnc2n1N=C(c1ccc(N3CCCC3)cc1)CS2` [Thiadiazine Entry 23, 3-(2-ethoxyphenyl)-6-(4-(pyrrolidin-1-yl)phenyl)-7H-[1,2,4]triazolo[3,4-b][1,3,4]thiadiazine], the “cAMP inhibition activity” value (listed as UCUF-965) was “dose-dependent partial agonist response; also recorded: dose-dependent partial inhibition of forskolin-stimulated cAMP production; also recorded: did not inhibit the action of SDF-1α; also recorded: doubling the Emax”, the “cAMP log EC50” value (log value, n=3) was −7.3±0.2 M and the Emax (read-out: cAMP maximal response (Emax) of SDF-1α potentiated by, pretreatment with 0.1 μM UCUF-965) was 110%. The Emax (read-out: cAMP maximal response (Emax) of SDF-1α potentiated by, pretreatment with 1 μM UCUF-965) was 201% and the Emax (read-out: cAMP maximal response (Emax) of SDF-1α potentiated by, pretreatment with 5 μM UCUF-965) was 209%.
